Experimental findings from PubChem BioAssay (NCI) are described below.

Among the test systems are 786-0 renal; ACHN renal; HCT-116 colon; HOP-62 NSCLC; HT29 colon; IGROV1 ovarian; M14 melanoma; RXF 393 renal; SF-539 CNS; SW-620 colon.
Holding throughout (assay): inhibition of tumour cell growth, NCI panel, 48 h

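In this assay, cells in 96-well plates receive the compound at five concentrations for 48 hours. Endpoints are linearly interpolated between the surrounding concentrations. The concentration for 50% growth inhibition is given as GI50. At the TGI there is no net growth.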

For `CC(CCCOC(c1ccccc1)(c1ccccc1)c1ccccc1)OC(=O)Nc1cc([N+](=O)[O-])cc([N+](=O)[O-])c1` (stereo not given), the TGI in the assay with 786-0 renal is 94.9 µM; in the assay with ACHN renal, 93.5 µM; in the assay on HCT-116 colon, > 100 µM; in the assay with HOP-62 NSCLC, 83.4 µM; in the assay on HT29 colon, > 100 µM; in the assay with IGROV1 ovarian, > 100 µM. The TGI in the assay with M14 melanoma, with RXF 393 renal, in the assay with SF-539 CNS and in the assay with SW-620 colon was > 100 µM each time.

With `Cn1cc(-c2ccc3c(c2)CCN3C(=O)Cc2cccc(C(F)(F)F)c2)c2c(N)ncnc21`, the GI50 was 2.26 µM in the assay with 786-0 renal; 0.871 µM in the assay with ACHN renal; 4.64 µM with HCT-116 colon; 8.17 µM with HOP-62 NSCLC; 3.61 µM with HT29 colon; 3.47 µM with IGROV1 ovarian. In addition, the GI50 in the assay on M14 melanoma is 1.7 µM; in the assay on RXF 393 renal, 3.46 µM; in the assay on SF-539 CNS it was 1.95 µM; in the assay on SW-620 colon it was 4.89 µM. For the same compound, the TGI was determined as 17.7 µM in the assay on 786-0 renal; 13.2 µM in the assay with ACHN renal; 18.1 µM with HCT-116 colon; 29.2 µM in the assay on HOP-62 NSCLC; 16.3 µM with HT29 colon; 30.5 µM in the assay with IGROV1 ovarian. Further, the TGI was found to be 16.2 µM in the assay on M14 melanoma, 19.5 µM in the assay on RXF 393 renal, 11.8 µM in the assay on SF-539 CNS and 20.8 µM in the assay with SW-620 colon.

As for `CC[CH2][Pb]([CH2]CC)([CH2]CC)[NH]S(=O)(=O)c1ccc(C)cc1`, the GI50 with 786-0 renal was 0.0574 µM; with ACHN renal, 0.0668 µM; with HCT-116 colon, 0.0452 µM; in the assay on HOP-62 NSCLC it was 0.0909 µM; with HT29 colon, 0.0546 µM; in the assay with IGROV1 ovarian it was 0.0723 µM. The GI50 is 0.0616 µM in the assay on M14 melanoma, 0.0218 µM in the assay on RXF 393 renal, 0.0659 µM in the assay with SF-539 CNS and 0.0364 µM with SW-620 colon. In addition, the TGI amounted to 0.134 µM in the assay with 786-0 renal; 0.2 µM in the assay on ACHN renal; 0.179 µM in the assay on HCT-116 colon; 0.422 µM with HOP-62 NSCLC; 0.112 µM in the assay with HT29 colon; 0.19 µM in the assay on IGROV1 ovarian. The TGI came to 0.219 µM in the assay with M14 melanoma, 0.0869 µM in the assay with RXF 393 renal, 0.155 µM with SF-539 CNS and 0.345 µM in the assay on SW-620 colon.

As to `COc1cc2cc(Oc3ccc(NC(=O)c4ccc(Cl)c(C(F)(F)F)c4)cc3)c(C)nc2cc1OC`, the GI50 in the assay with 786-0 renal is 12.1 µM; in the assay with ACHN renal, 10.8 µM; with HCT-116 colon, 4.18 µM; with HOP-62 NSCLC, 42.6 µM; in the assay on HT29 colon, 10.3 µM; in the assay on IGROV1 ovarian, 35.5 µM. Also, the GI50 in the assay on M14 melanoma was 9.55 µM; in the assay on RXF 393 renal, 9.04 µM; in the assay on SF-539 CNS, 41.3 µM; with SW-620 colon, 33.7 µM. Moreover, the TGI is > 100 µM with 786-0 renal; > 100 µM in the assay with ACHN renal; 88.9 µM in the assay with HCT-116 colon; > 100 µM in the assay on HOP-62 NSCLC; > 100 µM with HT29 colon; > 100 µM with IGROV1 ovarian. Moreover, the TGI with M14 melanoma, with RXF 393 renal, in the assay on SF-539 CNS and in the assay on SW-620 colon was > 100 µM throughout.

As for `CCc1c[nH]c2ncnc(N3CC[C@@](N)(CNC(=O)c4ccc(F)cc4F)C3)c12`, the GI50 is 25.9 µM in the assay on 786-0 renal; 23.8 µM in the assay with ACHN renal; 25 µM with HCT-116 colon; 30.5 µM in the assay with HOP-62 NSCLC; 62 µM in the assay with HT29 colon; 20.1 µM in the assay with IGROV1 ovarian. Further, the GI50 with M14 melanoma was 54.9 µM; in the assay with RXF 393 renal, 7.16 µM; in the assay with SF-539 CNS, 20.4 µM; in the assay on SW-620 colon, 31.3 µM. For the same compound, the TGI in the assay on 786-0 renal is > 85.5 µM; in the assay on ACHN renal it was > 100 µM; in the assay with HCT-116 colon it was > 100 µM; with HOP-62 NSCLC, > 100 µM; with HT29 colon, > 100 µM; in the assay with IGROV1 ovarian, > 94.9 µM. In addition, the TGI is > 100 µM with M14 melanoma, 35.9 µM in the assay with RXF 393 renal, > 100 µM in the assay with SF-539 CNS and > 100 µM in the assay on SW-620 colon.

As for `COC(=O)[C@@H]1CCCN1C(=O)[C@@H]1CCCN1C(=O)[C@@H](Cc1c[nH]c2ccccc12)NC(=S)Nc1cc(C(F)(F)F)cc(C(F)(F)F)c1`, the GI50 with 786-0 renal is 5.95 µM; with ACHN renal, 4.28 µM; in the assay with HCT-116 colon, 4.03 µM; with HOP-62 NSCLC it was 8.35 µM; in the assay on HT29 colon it was 3.68 µM; with IGROV1 ovarian, 3.91 µM. Also, the GI50 was 4.68 µM in the assay with M14 melanoma, 2.14 µM in the assay on RXF 393 renal, 7.72 µM with SF-539 CNS and 4.34 µM in the assay with SW-620 colon. Further, the TGI was 20.1 µM in the assay on 786-0 renal; > 100 µM with ACHN renal; > 100 µM in the assay on HCT-116 colon; > 100 µM with HOP-62 NSCLC; 23.3 µM in the assay with HT29 colon; 48.7 µM with IGROV1 ovarian. In addition, the TGI in the assay on M14 melanoma is 21.1 µM; with RXF 393 renal, 5.89 µM; in the assay on SF-539 CNS, 67.4 µM; with SW-620 colon it was > 100 µM.

Take `C=C[C@]1(C)C=C2C(=O)[C@@]3(O)OC[C@@]4(CCCC(C)(C)C43O)C2(O)C(O)C1` (stereo not given in full): the GI50 in the assay with 786-0 renal was 2.21 µM; with ACHN renal, 1.54 µM; with HCT-116 colon, 1.18 µM; with HOP-62 NSCLC it was 11.4 µM; in the assay on HT29 colon it was 1.46 µM; with IGROV1 ovarian, 1.55 µM. The GI50 in the assay with M14 melanoma was 1.55 µM; with RXF 393 renal it was 1.62 µM; with SF-539 CNS it was 5.15 µM; in the assay with SW-620 colon, 0.827 µM. Besides, the TGI is 5.51 µM in the assay on 786-0 renal; 3.1 µM with ACHN renal; 2.46 µM with HCT-116 colon; 24.7 µM in the assay with HOP-62 NSCLC; > 21.5 µM in the assay with HT29 colon; 6.36 µM in the assay with IGROV1 ovarian. Moreover, the TGI was determined as 3.01 µM with M14 melanoma, 3.48 µM in the assay on RXF 393 renal, 15.4 µM in the assay with SF-539 CNS and 2.31 µM with SW-620 colon.

On to `O=c1[nH]cc(OCC(F)(F)F)c(=O)[nH]1`, for which the TGI in the assay on 786-0 renal, with ACHN renal, in the assay with HCT-116 colon, in the assay with HOP-62 NSCLC, with HT29 colon and in the assay with IGROV1 ovarian was > 100 µM each time. The TGI with M14 melanoma, in the assay on RXF 393 renal, in the assay with SF-539 CNS and with SW-620 colon was > 100 µM throughout.
